Laboratory results published in ChEMBL document CHEMBL2440085, “Identification of novel PARP-1 inhibitors by structure-based virtual screening” (Bioorg Med Chem Lett, 2013).
The source made the active and inactive calls. No cut-off for these calls is given here.

Key:
[1] = molecular target: T1, Poly [ADP-ribose] polymerase 1 (Homo sapiens, UniProt P09874); assay: Inhibition of PARP-1 (unknown origin) at 1 uM after 60 mins by colorimetric assay relative to control
[2] = molecular target: T1, Poly [ADP-ribose] polymerase 1; assay: Inhibition of PARP-1 (unknown origin) after 60 mins by colorimetric assay
[3] = molecular target: T1, Poly [ADP-ribose] polymerase 1; assay: Inhibition of PARP-1 (unknown origin) at 10 uM after 60 mins by colorimetric assay relative to control

T1 sequence (P09874 whole entry): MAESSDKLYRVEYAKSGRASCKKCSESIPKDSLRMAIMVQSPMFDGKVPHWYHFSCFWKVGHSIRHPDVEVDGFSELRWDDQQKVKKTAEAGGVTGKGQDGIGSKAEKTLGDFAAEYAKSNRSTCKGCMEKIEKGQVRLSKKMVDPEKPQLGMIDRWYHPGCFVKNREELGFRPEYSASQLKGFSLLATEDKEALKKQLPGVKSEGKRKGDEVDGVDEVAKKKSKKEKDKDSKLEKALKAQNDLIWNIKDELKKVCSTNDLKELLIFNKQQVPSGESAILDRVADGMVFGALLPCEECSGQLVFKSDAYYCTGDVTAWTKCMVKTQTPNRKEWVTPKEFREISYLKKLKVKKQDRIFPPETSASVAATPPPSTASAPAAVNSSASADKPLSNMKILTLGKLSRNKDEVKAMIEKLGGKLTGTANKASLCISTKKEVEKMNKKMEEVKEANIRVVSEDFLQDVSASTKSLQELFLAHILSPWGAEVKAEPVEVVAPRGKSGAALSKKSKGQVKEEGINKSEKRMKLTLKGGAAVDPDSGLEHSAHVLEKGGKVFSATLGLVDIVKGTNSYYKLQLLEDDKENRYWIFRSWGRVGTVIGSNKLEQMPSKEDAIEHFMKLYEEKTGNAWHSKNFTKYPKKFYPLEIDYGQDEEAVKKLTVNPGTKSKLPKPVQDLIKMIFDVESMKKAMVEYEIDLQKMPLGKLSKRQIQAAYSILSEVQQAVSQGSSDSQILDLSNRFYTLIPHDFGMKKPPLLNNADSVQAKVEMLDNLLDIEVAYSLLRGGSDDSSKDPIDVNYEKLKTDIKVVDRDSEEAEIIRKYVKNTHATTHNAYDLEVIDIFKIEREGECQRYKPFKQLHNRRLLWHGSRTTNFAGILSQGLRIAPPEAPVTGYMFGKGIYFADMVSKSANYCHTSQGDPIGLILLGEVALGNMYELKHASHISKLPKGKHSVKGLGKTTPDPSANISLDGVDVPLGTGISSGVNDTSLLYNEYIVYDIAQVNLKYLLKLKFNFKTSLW

Row | Compound | inhibition [1] | IC50 [2] [nM] | inhibition [3] [%]
1 | O=C1NC(=O)c2cc(NS(=O)(=O)c3cccc4cccnc34)ccc21 | inactive | – | –
2 | O=C(CS(=O)(=O)CC(=O)c1ccc2c(c1)NC(=O)CO2)Nc1ccccc1 | inactive | – | –
3 | O=C1Nc2ccc(S(=O)(=O)NCc3ccccn3)c3cccc1c23 | inactive | – | –
4 | CC1Oc2ccc(NC(=O)COc3ccc(F)cc3)cc2NC1=O (stereo not given) | inactive | – | –
5 | Cc1nn2nnnc2[nH]c1=O | inactive | – | –
6 | O=C1Nc2ccc(S(=O)(=O)Nc3ccc(Cl)cn3)c3cccc1c23 | inactive | – | –
7 | O=C(O)CN1C(=O)c2ccc3c4c(ccc(c24)C1=O)C(=O)N3 | inactive | – | –
8 | O=C1N[C@H]2Cc3ccccc3CN2c2ccccc21 | 40% | 1920 | –
9 | Cc1ccc(C(=O)C2=C3NC(=O)c4ccccc4N3Cc3ccccc32)cc1 | inactive | – | –
10 | Cc1cc(OCC(=O)Nc2ccc3c(c2)NC(=O)C(C)O3)ccc1Cl (stereo not given) | inactive | – | –
11 | O=c1[nH]n(-c2ccc([N+](=O)[O-])cc2)c(=O)c2ccccc12 | inactive | – | –
12 | Cc1sc2nc(SCC(=O)N3CCN(CCO)CC3)[nH]c(=O)c2c1C | 40% | 720 | –
13 | Oc1nc2ccccc2n2nnnc12 | inactive | – | –
14 | CCCn1c2c(c(=S)[nH]c1=O)CCC2 | inactive | – | –
15 | Cc1ccc(C(=O)CSc2nc3c(c(=O)[nH]2)CCC3)cc1 | inactive | – | –
16 | O=c1[nH]cnc2sccc12 | – | – | < 20
17 | O=C1Nc2ccc(S(=O)(=O)NCc3cccnc3)c3cccc1c23 | inactive | – | –
18 | O=C(CSc1nc2sc3c(c2c(=O)[nH]1)CCC3)N(CCO)CCO | 40% | 2140 | –
19 | CC(C)(C)c1nn2c(SCC(=O)c3ccc(Cl)c(Cl)c3)nnc2[nH]c1=O | inactive | – | –
20 | O=c1[nH]c(NCc2ccncc2)nc2c1CCC2 | inactive | – | –
21 | CCN(CC)c1ccc(/C=N\Nc2nnc(C)c(=O)[nH]2)cc1 | inactive | – | –
22 | O=C(c1ccc(F)cc1)c1c2nc[nH]c(=O)c2c2ccccn12 | inactive | – | –
23 | N#Cc1c(-c2ccccc2)cn2c1[nH]c(=O)c1ccccc12 | 40% | 9570 | –
24 | O=c1[nH]cnc2ccsc12 | – | 14000 | –
25 | CC1Oc2ccc(NC(=O)CNC(=O)c3ccccc3)cc2NC1=O (stereo not given) | inactive | – | –
26 | Cc1cccc(N2CCN(c3nnc(C)c(=O)[nH]3)CC2)c1C | inactive | – | –
27 | O=C(c1ccccc1)c1c2nc[nH]c(=O)c2c2ccccn12 | inactive | – | –
28 | Oc1ncnc2ccsc12 | – | – | 46
29 | O=C1N[C@@H]2N(Cc3ccccc3C23CCOCC3)c2ccccc21 | 40% | 1960 | –
30 | Cc1ccc2cc(CCN)c(=O)[nH]c2c1C | inactive | – | –
